In PMC11053168, “Agonist-selective activation of individual G-proteins by muscarinic receptors” (Scientific Reports, 2024):
Like-named read-outs stand apart in the source and are kept apart here. Blank lines part the entries; values can stand above or below the compound they belong to.

What was measured:
M1 muscarinic receptor = biological target: T1, M1 muscarinic receptor (Homo sapiens, UniProt P11229); test: [3H]NMS competition binding, membranes from CHO cells expressing M1; settings: competition with [3H]NMS, mean ± SD, three experiments, read-out: Binding affinity, negative logarithm of Ki (converted)
T1 construct: membranes
T1 sequence (P11229 1-460): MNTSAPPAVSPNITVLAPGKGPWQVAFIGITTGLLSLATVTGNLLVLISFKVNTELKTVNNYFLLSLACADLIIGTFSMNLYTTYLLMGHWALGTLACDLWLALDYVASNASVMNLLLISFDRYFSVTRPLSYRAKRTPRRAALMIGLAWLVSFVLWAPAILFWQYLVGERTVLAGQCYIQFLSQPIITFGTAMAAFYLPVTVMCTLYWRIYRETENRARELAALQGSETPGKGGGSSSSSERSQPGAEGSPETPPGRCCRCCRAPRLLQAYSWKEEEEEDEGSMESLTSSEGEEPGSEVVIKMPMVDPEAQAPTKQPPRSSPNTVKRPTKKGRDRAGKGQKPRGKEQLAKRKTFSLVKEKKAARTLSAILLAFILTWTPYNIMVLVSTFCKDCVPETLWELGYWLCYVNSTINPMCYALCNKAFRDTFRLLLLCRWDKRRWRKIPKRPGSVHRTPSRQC
Procedure: (§1) Cells were cultured as described previously by Randakova et al.[33]. […] The medium was supplemented with 5 mM butyrate for the last 24 h of culture to increase receptor expression. Cells were washed with (phosphate-buffered saline (PBS), mechanically harvested by scraper and centrifugated 1000 × g for 5 min. Cell pellets were kept at − 80 °C.
(§2) Membranes were prepared as described previously by Randakova et al.[33]. Cells harvested from twenty 100 mm petri dishes (CHO) or 30 ml of cell suspension (Sf9) were suspended in 20 ml of ice-cold incubation medium (100 mM NaCl, 20 mM Na-HEPES, 10 mM MgCl2, pH 7.4) supplemented with 10 mM EDTA and homogenized on ice by two 30‐s strokes using a Polytron homogenizer (Ultra-Turrax; Janke & Kunkel GmbH & Co. KG, IKA-Labortechnik, Staufen, Germany) with a 30 s pause between strokes. Cell homogenates were centrifuged for 5 min at 1000×g to remove whole cells and cell nuclei. The resulting supernatants were centrifuged for 30 min at 30,000×g. Pellets were suspended in a fresh incubation medium, incubated on ice for 30 min, and centrifuged again. The resulting membrane pellets were kept at − 80 °C until assayed within 10 weeks.
(§3) Non-specific binding was determined in the presence of 10 μM unlabelled atropine. Incubations were terminated by filtration through filtration plates multiscreen 96 well Harvest (Merck Millipore) using a Brandel cell harvester (Brandel, Gaithersburg, MD, USA). Filtration plates were dried in a microwave oven, and then 40 μl of liquid scintillator Rotiscint eco plus (Roth) was added. The filtration plates were counted in the Microbeta scintillation counter (PerkinElmer). […] The inhibition constant KI was calculated according to Eq. (2).
(§4) Inhibition constants KI were calculated according to Eq. (2).2 KI=IC50/1+D/KD where IC50 is calculated according to Eq.

M2 muscarinic receptor = biological target: T2, M2 muscarinic receptor (Homo sapiens, UniProt P08172); test: [3H]NMS competition binding, membranes from CHO cells expressing M2
T2 construct: membranes
T2 sequence (P08172 1-466): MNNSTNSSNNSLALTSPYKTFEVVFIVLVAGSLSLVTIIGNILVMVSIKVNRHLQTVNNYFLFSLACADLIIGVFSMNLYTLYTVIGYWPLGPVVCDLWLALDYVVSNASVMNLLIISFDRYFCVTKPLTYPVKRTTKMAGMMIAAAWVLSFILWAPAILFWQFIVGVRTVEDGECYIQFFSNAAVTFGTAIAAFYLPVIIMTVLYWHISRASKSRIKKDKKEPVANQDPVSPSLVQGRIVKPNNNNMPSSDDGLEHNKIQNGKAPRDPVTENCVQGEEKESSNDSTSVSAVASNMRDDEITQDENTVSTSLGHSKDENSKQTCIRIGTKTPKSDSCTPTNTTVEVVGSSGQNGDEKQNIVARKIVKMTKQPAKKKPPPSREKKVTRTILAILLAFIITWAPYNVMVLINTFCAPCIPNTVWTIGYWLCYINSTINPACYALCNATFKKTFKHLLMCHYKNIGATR
Procedure: as §1, §2, §3, §4

M3 muscarinic receptor = biological target: T3, M3 muscarinic receptor (Homo sapiens, UniProt P20309); test: [3H]NMS competition binding, membranes from CHO cells expressing M3; settings: competition with [3H]NMS, mean ± SD, three experiments, read-out: Binding affinity, negative logarithm of Ki (converted)
T3 construct: membranes
T3 sequence (P20309 whole entry): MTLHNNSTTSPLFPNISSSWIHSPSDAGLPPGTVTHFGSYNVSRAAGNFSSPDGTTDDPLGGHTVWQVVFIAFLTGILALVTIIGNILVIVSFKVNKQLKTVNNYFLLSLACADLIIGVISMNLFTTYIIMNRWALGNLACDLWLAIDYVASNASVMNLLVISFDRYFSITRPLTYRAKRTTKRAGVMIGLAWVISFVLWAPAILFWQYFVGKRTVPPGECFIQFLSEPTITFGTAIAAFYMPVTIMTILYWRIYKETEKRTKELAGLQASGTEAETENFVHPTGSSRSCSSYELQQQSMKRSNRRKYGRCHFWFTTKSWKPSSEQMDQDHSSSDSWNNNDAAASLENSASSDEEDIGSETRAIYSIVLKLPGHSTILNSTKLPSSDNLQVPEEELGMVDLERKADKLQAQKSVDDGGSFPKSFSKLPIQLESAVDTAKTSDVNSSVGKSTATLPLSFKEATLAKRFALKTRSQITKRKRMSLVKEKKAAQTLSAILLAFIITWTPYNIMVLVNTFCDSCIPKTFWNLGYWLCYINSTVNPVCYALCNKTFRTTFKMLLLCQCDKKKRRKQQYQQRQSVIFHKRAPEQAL
Procedure: as §1, §2, §3, §4

M4 muscarinic receptor = biological target: T4, M4 muscarinic receptor (Homo sapiens, UniProt P08173); test: [3H]NMS competition binding, membranes from CHO cells expressing M4
T4 construct: membranes
T4 sequence (P08173 1-479): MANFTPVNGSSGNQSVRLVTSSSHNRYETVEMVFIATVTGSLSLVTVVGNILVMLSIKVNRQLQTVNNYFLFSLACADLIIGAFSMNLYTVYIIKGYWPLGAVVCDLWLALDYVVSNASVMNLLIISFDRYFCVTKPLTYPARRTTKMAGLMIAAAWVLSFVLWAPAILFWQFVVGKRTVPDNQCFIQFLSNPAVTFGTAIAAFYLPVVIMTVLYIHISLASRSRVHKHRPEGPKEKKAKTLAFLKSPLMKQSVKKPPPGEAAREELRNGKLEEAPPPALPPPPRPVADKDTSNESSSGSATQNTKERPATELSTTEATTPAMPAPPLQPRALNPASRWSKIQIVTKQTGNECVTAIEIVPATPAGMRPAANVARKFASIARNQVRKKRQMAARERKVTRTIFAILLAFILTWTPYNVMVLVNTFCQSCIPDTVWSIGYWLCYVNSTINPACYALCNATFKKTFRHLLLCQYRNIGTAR
Procedure: as §1, §2, §3, §4

M5 muscarinic receptor = biological target: T5, M5 muscarinic receptor (Homo sapiens, UniProt P08912); test: [3H]NMS competition binding, membranes from CHO cells expressing M5
T5 construct: membranes
T5 sequence (P08912 1-532): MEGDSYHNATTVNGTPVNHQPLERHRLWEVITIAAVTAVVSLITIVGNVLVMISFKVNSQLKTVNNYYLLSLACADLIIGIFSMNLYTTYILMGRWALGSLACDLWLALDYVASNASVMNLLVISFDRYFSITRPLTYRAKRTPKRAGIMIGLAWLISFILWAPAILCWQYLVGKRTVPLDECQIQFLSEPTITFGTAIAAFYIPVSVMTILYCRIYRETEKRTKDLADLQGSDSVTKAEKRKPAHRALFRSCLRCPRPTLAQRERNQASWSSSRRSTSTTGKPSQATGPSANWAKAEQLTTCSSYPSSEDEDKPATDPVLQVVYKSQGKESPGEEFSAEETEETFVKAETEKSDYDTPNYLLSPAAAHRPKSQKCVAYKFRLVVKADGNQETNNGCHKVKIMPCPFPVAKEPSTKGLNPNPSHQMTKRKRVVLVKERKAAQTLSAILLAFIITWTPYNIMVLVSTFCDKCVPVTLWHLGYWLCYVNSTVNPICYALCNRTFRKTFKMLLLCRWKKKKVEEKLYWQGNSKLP
Procedure: as §1, §2, §3, §4

M2 receptor = biological target: T6, M2 receptor (Homo sapiens, UniProt P08172); test: Agonist-stimulated GTPγ[35S] binding to Sf9 membranes expressing M2 receptor and individual Gαi/o; type: biochemical; design: host or cells: Sf9 insect cells, baculovirus (pFastBac1 / Bac-to-Bac); membranes; settings: for Activation of individual Gi/o Gα types: M2 with GαoA, GαoB, Gαi1, Gαi2, Gαi3
T6 sequence (P08172 1-466): T2 sequence (P08172 1-466)
Procedure: Baculoviral stocks for expression of M2 receptor and individual Gα-subunits of Gi/o G-proteins (GαoA, GαoB, Gαi1, Gαi2, Gαi3) in SF9 cells were generated according to Bac-to-Bac® baculovirus expression system—user guide (https://assets.thermofisher.com/TFS-Assets/LSG/manuals/MAN0000414_BactoBacExpressionSystem_UG.pdf). […] After 96 h at 27 °C, baculoviral viral particles released into the medium were harvested. After centrifugation at 500×g for 10 min to remove detached cells and cell debris, baculoviral stock P0 was ready for amplification. Suspension of Sf9 cells at density 2 × 10^6 cells per ml was infected by baculoviral stock P0 in ratio 1:1000 and after 72 h of growth (in a shaking incubator at 135 rpm and 27 °C) the amplified baculoviral stock P1 was harvested. The cell suspension was centrifugated at 500×g for 10 min to remove cells and cell debris and the supernatant containing a high level of baculoviral particles P1 was collected. FBS to the concentration of 0.5% was added and the stock was stored at 4 °C, protected from light for up to 6 months. For the quantification of baculoviral particles, a plaque assay was used.
Cells were grown in suspension culture in 250 ml Erlenmeyer flasks in Sf-900™ III serum-free medium in an aerated shaking incubator at 27 °C and 135 rpm. Cells were maintained at the density of 1–4 × 10^6 cells per ml. Sf9 cells at the density 2 × 10^6 were co-infected with baculoviral stock for the M2 receptor and a particular Gi/o Gα in the ratio (1:10). […] Infected cells were harvested by centrifugation 1000×g for 10 min. Cell pellets were kept at − 80 °C.
as §2
Agonist stimulated GTPγ[^35S]binding to membranes from Sf9 cells expressing the M2 receptors in a combination with α-subunit of given Gi/o type (GαoA, GαoB, Gαi1, Gαi2, Gαi3) was measured in 96-well plates in a final volume of 200 µl of incubation medium described above containing 500 pM of GTPγ[^35S] […] Nonspecific binding was determined in the presence of 1 µM nonlabelled GTPγS. Incubations were terminated and processed as described above. Parameters of functional response were calculated according to Eq. (3) after subtraction of non-specific binding.
The basal value of GTPγ[^35S] binding was determined in the absence of the agonist. After subtraction of non-specific binding determined in the presence of 10 μM nonlabelled GTPγS, GTPγ[^35S]binding was divided by the basal value and expressed as folds over basal. […] Then Eq. (3) was fitted to the data using GraphPad. Obtained EMAX and EC50 values were used to calculate RAi values using Eq. (7). To determine τ and KA of the functional responses system EMAX was determined as described earlier. Basal values were subtracted and functional responses were expressed as fractions of system EMAX. […] Obtained τ and KA values were used to calculate the bias factor according to Eq. (8), see below, for each experiment.
Equation (4) was fitted to data by the two-step procedure described earlier[61]

- Ki (M1 muscarinic receptor): > 1000 µM
- Ki (M2 muscarinic receptor; M2, competition with [3H]NMS, mean ± SD, three experiments, read-out: Binding affinity, negative logarithm of Ki (converted)): 302 µM
- Ki (M3 muscarinic receptor): > 1000 µM
- Ki (M4 muscarinic receptor; M4, competition with [3H]NMS, mean ± SD, three experiments, read-out: Binding affinity, negative logarithm of Ki (converted)): > 1000 µM
- Ki (M5 muscarinic receptor; M5, competition with [3H]NMS, mean ± SD, three experiments, read-out: Binding affinity, negative logarithm of Ki (converted)): > 1000 µM
SMILES: c1csc(CN2CCOCC2)c1 [JB-12-1]

SMILES: COC(=O)C1=CCC[N+](C)(Cc2cccs2)C1 (centres unmarked) [JB-13-2]
- Ki (M1 muscarinic receptor): 42.7 µM
- Ki (M2 muscarinic receptor): 9.55 µM
- Ki (M3 muscarinic receptor): 126 µM
- Ki (M4 muscarinic receptor): 22.9 µM
- Ki (M5 muscarinic receptor): 97.7 µM

SMILES: C[N+](C)(C)CC#CCOC(=O)Nc1cccc(Cl)c1.[Cl-] [Mc-Neil A343, reference compound]
- Bias according to RAi, Gαi2 vs GαoB (M2 receptor; M2, relative to carbachol): 2.3 ×
- Activation of individual Gi/o Gα types (M2 receptor): activated all Gi/o Gα

SMILES: Clc1ccc2c(c1)N=C(N1CCNCC1)c1ccccc1N2 [NDMC, reference compound]
- Activation of individual Gi/o Gα types (M2 receptor): activated all Gi/o Gα

SMILES: C[N+](C)(C)CC#CCOC1=NOCC1 [iperoxo, reference compound]
- Bias according to RAi, Gαi3 vs GαoA (M2 receptor; M2, relative to carbachol): 2.5 times
- Activation of individual Gi/o Gα types (M2 receptor): activated all Gi/o Gα

SMILES: O=C1CCCN1CC#CCN1CCCC1 [oxotremorine, reference compound]
- Bias according to RAi, Gαi2 vs Gαi3 (M2 receptor; M2, relative to carbachol): 2 ×
- Activation of individual Gi/o Gα types (M2 receptor): activated all Gi/o Gα
